Where two headings read alike, the source gives them in different places. Marks after values point to notes of the source that are not given here.
Columns and labels:
[1] = system: isolated Langendorff-perfused rat hearts; assay: Ex vivo Langendorff-perfused rat heart, cardiac performance; conditions: for ∆% +dP/dtmax / ∆% LVDP / ∆% −dP/dtmax: increase vs. control; for LVDP: isolated rat heart, mean ± SD, n = 6
Method: The cardiac contractility and safety of prodrugs 3–5 were evaluated on the myocardium in normal isolated rat hearts with LZDO as a positive control. Prodrugs 3–5 exerted positive inotropic effects in a dose-dependent manner. The increased rate in left ventricular developed pressure (LVDP, accepted as contractile force), +dP/dtmax (used as an index of contractility), the maximum rate of pressure decrease of the left ventricle ([…], used as an index of diastolic function) and the heart rate (HR, used as an index of heart muscle oxygen consumption) of these compounds vs. control are listed in Table 1.
All commercial reagents and solvents were used without further purification unless otherwise specified. Melting points were determined using a model Buchi B-450 apparatus. ESI-MS were recorded on a TOF mass spectrometer (Applies-Biosystem Mariner). IR spectra were acquired by using a THERMO IR spectrometer Model Nicolet-100. ^1H- and ^13C-NMR spectra (500/125 MHz) were recorded on a Bruker Advance 500 spectrophotometer. Mass spectra were recorded on a ZAB-HS mass spectrometer and are reported as m/z values. HPLC analysis was conducted on a Waters 2695 HPLC instrument equipped with a UV detector (model 2489). LZDO and prodrugs 3–5 were analysed by HPLC, and their purity was confirmed to be greater than 98.0%. In vitro metabolic stability analysis was conducted by a HPLC method, using stock standard solutions of LZDO and prodrugs that were prepared in water at a concentration of 30 mM. The positive inotropic effects on the myocardium of LZDO and prodrugs 3–5 in vitro were evaluated on Langendorff-perfused hearts isolated from normal Sprague-Dawley rats. A HPLC method was applied to measure the rat plasma concentrations of LZDO and prodrug 3 after intragastric administration of prodrug 3 in the rats.
Sprague-Dawley adult male rats weighing 260–320 g were anaesthetised by intraperitoneal administration of 20% urethane (1.2 g/kg). The hearts were quickly removed and placed into an ice-cold modified buffer until contractions ceased. The heart was cleaned of surrounding tissues, mounted on the aortic cannula of the Langendorff perfusion system apparatus, and perfused with oxygenated buffer (mM): NaCl 117, KCl 5.7, CaCl2 1.8, MgCl2 1.7, NaHCO3 4.4, NaH2PO4 1.5, HEPES 20 and glucose 11. The buffer was equilibrated with 95% O2 and 5% CO2 and adjusted to pH 7.4 with NaOH before it entered the heart. An epicardial electrogram was registered using two stainless steel electrodes, one attached to the apex of the heart and the other to the aortic cannula. To obtain an isovolumetrically beating preparation, a latex balloon filled with water and connected by a catheter to a transducer was inserted through the left atrium into the left ventricle and inflated to provide an end-diastolic pressure between 8 and 12 mm Hg. Before each experimental protocol was initiated, the isolated hearts were set at a mean arterial pressure of 60–80 mm Hg and allowed to stabilise at 37 °C for 40–60 min. The isolated rat hearts were then perfused in sequence with 1, 10, and 100 μM of LZDO and prodrugs 3–5 in each group. A RM6240B/C four channel physiological recording instrument (Chengdu Instrument Factory, Chengdu, China) was used for continuous recording of LVSP, LVEDP, HR (derived from electrogram), +dP/dtmax and −dP/dtmax throughout the experiments. The criteria for established stability were LVDP > 50 mmHg, +dP/dtmax > 1,600 mmHg·s^−1, heart rate > 180 beats·min^−1 and normal sinus rhythm. The hearts were not studied if they had weak contractility (+dP/dtmax < 1,600 mmHg·s^−1) and severe arrhythmia. Diastolic balloon pressure was maintained at 8 mmHg. LVDP was calculated as the difference between the systolic and diastolic pressures. The results are expressed as the mean value of hemodynamic variables (n = 6). Statistical analysis was performed using SPSS for Windows (version 13.0). Data were analyzed by One-way ANOVA. […]

[2] = set-up: method as in earlier work; conditions: cited from earlier work; for AUC0–t / AUC0–∞ / Cmax / Tmax / t1/2: rat

Cc1nc(CO)c(C)nc1CO [1a, Liguzinediol]
+dP/dtmax ([1]; 1 μM): 1,836 ± 121 mmHg/s | HR ([1]; 1 μM): 186 ± 29 beat·min^−1 | −dP/dtmax ([1]; 1 μM): −1,175 ± 125 mmHg/s | ∆% +dP/dtmax ([1]; 1 μM): 9.4 ± 8.1% | ∆% LVDP ([1]; 1 μM): 19.4 ± 11.0% | ∆% −dP/dtmax ([1]; 1 μM): 11.1 ± 10.0% | LVDP ([1]; 1 μM): 60 ± 5 ^b mmHg | +dP/dtmax ([1]; 10 μM): 2,125 ± 242 ^bc mmHg/s | HR ([1]; 10 μM): 209 ± 21 beat·min^−1 | −dP/dtmax ([1]; 10 μM): −1,371 ± 186 ^bc mmHg/s | ∆% +dP/dtmax ([1]; 10 μM): 26.5 ± 13.4% | ∆% LVDP ([1]; 10 μM): 45.6 ± 9.0% | ∆% −dP/dtmax ([1]; 10 μM): 30.3 ± 0.3% | LVDP ([1]; 10 μM): 73 ± 4 ^bd mmHg | +dP/dtmax ([1]; 100 μM): 2,702 ± 287 ^bdf mmHg/s | HR ([1]; 100 μM): 193 ± 15 beat·min^−1 | −dP/dtmax ([1]; 100 μM): −1,911 ± 200 ^bdf mmHg/s | ∆% +dP/dtmax ([1]; 100 μM): 60.9 ± 17.3% | ∆% LVDP ([1]; 100 μM): 76.3 ± 12.3% | ∆% −dP/dtmax ([1]; 100 μM): 82.0 ± 27.9% | LVDP ([1]; 100 μM): 88 ± 3 ^bdf mmHg | AUC0–t ([2]; LZDO 10 mg·kg^−1 i.g.): 16740 ± 8900 ng·h/mL | AUC0–∞ ([2]; LZDO 10 mg·kg^−1 i.g.): 17080 ± 8990 ng·h/mL | Cmax ([2]; LZDO 10 mg·kg^−1 i.g.): 8580 ± 2660 ng/mL | Tmax ([2]; LZDO 10 mg·kg^−1 i.g.): 0.29 ± 0.10 h | t1/2 ([2]; LZDO 10 mg·kg^−1 i.g.): 2.21 ± 1.11 h | AUC0–t ([2]; LZDO 20 mg·kg^−1 i.g.): 34840 ± 24640 ng·h/mL | AUC0–∞ ([2]; LZDO 20 mg·kg^−1 i.g.): 35930 ± 24080 ng·h/mL | Cmax ([2]; LZDO 20 mg·kg^−1 i.g.): 17020 ± 5500 ng/mL | Tmax ([2]; LZDO 20 mg·kg^−1 i.g.): 0.29 ± 0.10 h | t1/2 ([2]; LZDO 20 mg·kg^−1 i.g.): 2.57 ± 2.14 h | AUC0–t ([2]; LZDO 50 mg·kg^−1 i.g.): 92850 ± 64100 ng·h/mL | AUC0–∞ ([2]; LZDO 50 mg·kg^−1 i.g.): 94820 ± 66880 ng·h/mL | Cmax ([2]; LZDO 50 mg·kg^−1 i.g.): 49330 ± 10500 ng/mL | Tmax ([2]; LZDO 50 mg·kg^−1 i.g.): 0.29 ± 0.10 h | t1/2 ([2]; LZDO 50 mg·kg^−1 i.g.): 1.78 ± 0.57 h | half-life ([2]; after intragastric administration, rats): about 2 h
